# Legend:
# MMP-13 = MMP-13 (Homo sapiens, UniProt P45452); assay: MMP-13 catalytic activity assay (modified pro-urokinase UKcol, chromogenic substrate S-2444, A405); assay type: biochemical; settings: HICA 25 μg/ml, FIG. 2
# Procedure: This example was carried out to test the inhibition of the catalytic activity of MMP-13. MMP-13 activity was measured as described previously (Hanemaaijer, Visser et al. 1998). In brief, MMP-13 was captured from biological fluids using MMP-13-specific monoclonal antibody-coated 96-well plates. The wells were washed three times with PBS-T (phosphate buffered saline solution containing 0.05% [v/v] Tween-20) and incubated with […] assay buffer (50 mM Tris-HCl, pH 7.6. 150 mM NaCl, 5 mM CaCl2, 1 μM ZnCl2 and 0.01% [v/v] Brij-35), to which 15 μl (50 μg/ml) modified pro-urokinase (UKcol) and 10 pl (6 mM stock) chromogenic substrate S-2444 was added. Color development was recorded by measurement of A405 using a Titertek Multiskan 8-channel photometer (Verheijen, Nieuwenbroek et al. 1997). For measurement of total activity (already active plus latent MMP-13) in biological fluid, the immobilized MMP-13 was incubated with assay buffer containing 0.5 mM APMA for 2 hr, after which UKcol and S-2444 were added and activity was recorded. (Hanemaaijer, Sier et al. 1999)
# The protocol for this experiment: MMP-13 was activated with […] of APMA (p-aminophenylmercuric acetate, obtained from Sigma-Aldrich #A9563), after which MMP-13 was diluted and mixed with indicated inhibitors. Solution was let to incubate 30 minutes at 37° C. […]
# [1] = tested on: type II collagen C2C neoepitope; assay: Serum type II collagen C2C neoepitope (ELISA) in 4-week double-blind study; assay type: in vivo, human
# Procedure: (§1) In order to assess the effects of HICA on type II collagen and hyaluronic acid in healthy adults in vivo a study was conducted, where fifteen healthy male athletes (age 21.3±2.8 yr) volunteered for the 4-week study with double-blind design (Table 1). They were randomized to two parallel groups. Subjects in Group 1 (n=8, age 22.8±4.6 yr, height 179±6 cm, weight 76.2±6.9 kg, fat % 14.1±3.7%) received 583.2 mg of sodium salt of HICA (corresponding 500 mg of HICA) thrice a day for 4 weeks, and those in Group 2 (n=7, age 21.3±3.0 yr, height 178±5 cm, weight 73.5±5.0 kg, fat % 11.1±3.0%) received placebo (650 mg of maltodextrin) thrice a day for the same period. The subjects and the controls received repacked substance of equal volume (1.5 ml) which they were advised to mix with liquid. The subjects and the controls kept physical training constant during the study period, and they kept training daily. Serum specimens were obtained at baseline and in the end of the treatment. Specimens were aliquoted and immediately frozen; serum was collected and frozen at −70° C.
# A kit for determination of the type II collagen C2C neoepitope was provided by Ibex Technologies (Montreal, Quebec, Canada). It was measured by means of an enzyme-linked immunosorbent assay (ELISA) (Kojima, Mwale et al. 2001). […]
# S-Hyaluronan = assay: Serum hyaluronan (HA-ELISA) in 4-week double-blind study; assay type: in vivo, human
# Procedure: as §1
# Serum HA was measured by Hyaluronan Enzyme-Linked Immunosorbent Assay Kit, HA-ELISA (Echelon Biosciences Inc., Salt Lake City, USA). Intra- and interassay coefficients of variation of the serum HA assay were 3.2% and 4.42% respectively. The assay range was 15-1,000 ng/ml, the intraassay CV was <4%, the interassay CV was <6%. […]
# [2] = Characteristics of the subjects after four weeks on HICA; assay type: in vivo, human; settings: Mean ± SD
# Procedure: as §1
# The Analysis of Variance (ANOVA) was used to assess statistical differences between the treatment groups. Data were handled as changes between the measurements before and after the treatments. Further, paired t-test was used to compare values before and after treatments. Probabilities less than 0.05 were regarded as statistically significant. Statistical analyses were carried out using the software program Systat for Windows (Statistics, Version 9, Evanston, IL, USA, 1992). The results are presented as means±SEM.
structure (smiles),measurement,setting,value
"CC(C)CC(O)C(=O)O (racemic) [HICA, 2-hydroxy-4-methylpentanoic acid]",decreased activity of MMP-13,MMP-13; MMP-13 concentration 1.5 ng/ml,72%
same,decreased activity of MMP-13,MMP-13; MMP-13 concentration 24 ng/ml,73%
same,S-C2C after HICA,"[1]; Mean ± SEM, n=8 healthy male athletes, sodium salt of HICA corresponding 500 mg HICA thrice a day for 4 weeks, before 204 ± 14, p = 0.069 vs placebo",189 ± 10 ng/mL
same,decrease in serum C2C,"[1]; during 4-week administration of HICA, placebo 2%, p=0.069 between the groups",8%
same,S-Hyaluronan after HICA,"S-Hyaluronan; Mean ± SEM, n=8 healthy male athletes, sodium salt of HICA corresponding 500 mg HICA thrice a day for 4 weeks, before 202 ± 56, p = 0.066 vs placebo",143 ± 19 ng/mL
same,decrease in serum HA concentration,"S-Hyaluronan; during 4-week administration of HICA, placebo 10%, p=0.066 between the groups",29%
same,Hematocrite after HICA,"[2]; before 0.44 ± 0.02, p = n.s. vs placebo",0.45 ± 0.02
same,Body Fat procent after HICA,"[2]; before 14.1 ± 3.7, p = n.s. vs placebo",14.0 ± 2.5%
same,Weight after HICA,"[2]; before 76.2 ± 6.9, p = n.s. vs placebo",76.5 ± 8.4 kg
same,Hemoglobin after HICA,"[2]; before 152 ± 7, p = n.s. vs placebo",151 ± 5 g/L

# — patent US11793779B2, “Hica for use in prophylaxis and/or treatment of a disease or condition involving degradation of cartilage and/or disruption of cartilage homeostasis and/or integrity” (Salarusta Oy, priority 2020, dated 2023)
